What was measured:
hPSCs = assay: RT-qPCR of pluripotency and germ-layer markers during differentiation with CPP-peptides (Supplementary Fig. 7b-e); format: cell-based, human; details: for GATA4 (RT-qPCR) / SOX17 (RT-qPCR): Fig. s7e
Experimental: (§1) For CPP-conjugated peptide delivery, HeLa, 293T, and PA-1 cells were incubated with CPP-conjugated peptides or CPP-FITC at 2 μM in DMEM with 10% FBS for 12 h a day before cell harvest. hPSCs were treated with CPP-conjugated peptides at 10 μM in mTeSR Plus Medium, and the peptide-containing medium was changed every day over 10 days. The ROCK inhibitor (Tocris Bioscience, Y-27632) treated-hPSCs were dissociated into single cells using Accutase (Merck, SCR005) and differentiated into ectoderm, mesoderm, and endoderm using the STEMdiff Trilineage Differentiation Kit ([…] Technologies, 05230) following the manufacturer’s protocol. Differentiated cells treated with CPP-conjugated peptides were analysed at 0, 3, and 5 days for ectoderm and endoderm, and at 0, 3, and 4 days for mesoderm. […]
(§2) cDNA was synthesised using RevertAid Reverse Transcriptase (Thermo Fisher Scientific, EP0441) with synthesised random hexamer (Macrogen) for total RNA or stem-loop primers for miRNA. For RT-qPCR reactions, the SensiFAST SYBR No-ROX kit (Meridian Bioscience) was used according to the manufacturer’s protocol. All data analysis and visualisation were conducted using R 3.6.1 [www.r-project.org] or GraphPad Prism 10. RT primers for miRNA and RT-qPCR primer sequences are provided in Supplementary Data 6. […]
FPKM of each gene was presented f r om RNA-seq analysis. b–e hPSCs wer e treated with the indicated peptide during each germ la ye r differentiation. […]
An unpaired Student’s t-test was used for a–e. Data are presented as mean values ± SEM. All statistical test us ed wer e two-s ided. T he m inim um number of independent biological replicate experim ents was a–f n = 3. T he experiments wer e conducted three tim es, each iteration producing consistent results.

CHA15 cells = assay: RT-qPCR of indicated transcripts (NMD targets, pluripotency markers) in CPP-peptide-treated CHA15 cells (Supplementary Fig. 6d); format: cell-based, human; details: Fig. s6d, mean of 3 replicates
Experimental: as §1, §2
Scale bars, 100 μm . d (Corresponding to Fig. 6d) RT -qPCR was perform ed to evaluate the level of indicated transcripts upon the indicated peptide treatm ent in CHA15 cells. e T ranscriptom e analysis was perf orm ed using signif icantly changed transcripts (p < 0.05) f rom siLIN28A or siControl in the indicated CPP-peptide treated CHA15 cells. […]
5p and m iR-16- 5p was shown as CDF graphs. T he relative level of m RNA was norm alised to that of U6 snRNA in (c, d, and f). K–S tests were used for e and f. Unpaired Student’s t-test was used for c , d, and f . * p < 0.05, ** p < 0.01, *** p < 0.001. Exact p -values were provided in Source data. Data are presented as m ean values ± SEM. All statistical test used were two- sided. T he m inim um num ber of independent biological replicate experim ents was a and e n = 2, b–d and f n = 3. T he experim ents were conducted three tim es, each iteration producing consistent results.

[1] = Fig. s7d, day 3, mean of 3 replicates
[2] = Fig. s7d, day 4, mean of 3 replicates

N-QKLDQKELQLEPM-C [P1, reference compound]
SNAI1 mRNA level (RT-qPCR) (hPSCs; Fig. s7d, Day 3, replicate 3): 26.6105
TBXT mRNA level (RT-qPCR) (hPSCs; Fig. s7d, Day 3, replicate 3): 10449.6
BMP2 mRNA level (RT-qPCR) (hPSCs; Fig. s7d, Day 4, replicate 1): 0.2301
BMP4 mRNA level (RT-qPCR) (hPSCs; Fig. s7d, Day 4, replicate 1): 13.0546
CDH2 mRNA level (RT-qPCR) (hPSCs; Fig. s7d, Day 4, replicate 1): 16.734
CXCR4 mRNA level (RT-qPCR) (hPSCs; Fig. s7d, Day 4, replicate 1): 712.401
SNAI1 mRNA level (RT-qPCR) (hPSCs; Fig. s7d, Day 4, replicate 1): 5.736
TBXT mRNA level (RT-qPCR) (hPSCs; Fig. s7d, Day 4, replicate 1): 3587.41
BMP2 mRNA level (RT-qPCR) (hPSCs; Fig. s7d, Day 4, replicate 2): 0.3418
BMP4 mRNA level (RT-qPCR) (hPSCs; Fig. s7d, Day 4, replicate 2): 14.5702
CDH2 mRNA level (RT-qPCR) (hPSCs; Fig. s7d, Day 4, replicate 2): 18.1378
CXCR4 mRNA level (RT-qPCR) (hPSCs; Fig. s7d, Day 4, replicate 2): 778.248
SNAI1 mRNA level (RT-qPCR) (hPSCs; Fig. s7d, Day 4, replicate 2): 15.183
TBXT mRNA level (RT-qPCR) (hPSCs; Fig. s7d, Day 4, replicate 2): 4442.19
BMP2 mRNA level (RT-qPCR) (hPSCs; Fig. s7d, Day 4, replicate 3): 0.2814
BMP4 mRNA level (RT-qPCR) (hPSCs; Fig. s7d, Day 4, replicate 3): 11.4814
CDH2 mRNA level (RT-qPCR) (hPSCs; Fig. s7d, Day 4, replicate 3): 17.3255
CXCR4 mRNA level (RT-qPCR) (hPSCs; Fig. s7d, Day 4, replicate 3): 495.057
SNAI1 mRNA level (RT-qPCR) (hPSCs; Fig. s7d, Day 4, replicate 3): 11.0955
TBXT mRNA level (RT-qPCR) (hPSCs; Fig. s7d, Day 4, replicate 3): 3830.03
SNAI1 mRNA level (RT-qPCR), mean (hPSCs; [1]): 22.94
TBXT mRNA level (RT-qPCR), mean (hPSCs; [1]): 8147
BMP4 mRNA level (RT-qPCR), mean (hPSCs; [2]): 13.04
CDH2 mRNA level (RT-qPCR), mean (hPSCs; [2]): 17.4
TBXT mRNA level (RT-qPCR), mean (hPSCs; [2]): 3953
GATA4 (RT-qPCR) (hPSCs; Day 0, replicate 1): 0.7242
GATA4 (RT-qPCR) (hPSCs; Day 0, replicate 2): 1.3517
GATA4 (RT-qPCR) (hPSCs; Day 0, replicate 3): 0.9241
GATA4 (RT-qPCR) (hPSCs; Day 3, replicate 1): 30.0473
GATA4 (RT-qPCR) (hPSCs; Day 3, replicate 2): 43.5025
GATA4 (RT-qPCR) (hPSCs; Day 3, replicate 3): 37.4013
GATA4 (RT-qPCR) (hPSCs; Day 5, replicate 1): 61.3703
GATA4 (RT-qPCR) (hPSCs; Day 5, replicate 2): 60.3509
GATA4 (RT-qPCR) (hPSCs; Day 5, replicate 3): 57.9664
SOX17 (RT-qPCR) (hPSCs; Day 0, replicate 1): 1.264
SOX17 (RT-qPCR) (hPSCs; Day 0, replicate 2): 0.8709
SOX17 (RT-qPCR) (hPSCs; Day 0, replicate 3): 0.8647
SOX17 (RT-qPCR) (hPSCs; Day 3, replicate 1): 1651.55
SOX17 (RT-qPCR) (hPSCs; Day 3, replicate 2): 1098.49
SOX17 (RT-qPCR) (hPSCs; Day 3, replicate 3): 1780.82
SOX17 (RT-qPCR) (hPSCs; Day 5, replicate 1): 1087.63
SOX17 (RT-qPCR) (hPSCs; Day 5, replicate 2): 1382.51
SOX17 (RT-qPCR) (hPSCs; Day 5, replicate 3): 1398.03
DLK1 mRNA level, mean (CHA15 cells): 1
FRZB mRNA level, mean (CHA15 cells): 1
GLI2 mRNA level, mean (CHA15 cells): 1
MAPK7 mRNA level, mean (CHA15 cells): 1
NANOG mRNA level, mean (CHA15 cells): 1
PDZD4 mRNA level, mean (CHA15 cells): 1
POU5F1 mRNA level, mean (CHA15 cells): 1
SIX3 mRNA level, mean (CHA15 cells): 1
SLC7A5 mRNA level, mean (CHA15 cells): 1
SNAP25 mRNA level, mean (CHA15 cells): 1
SOX2 mRNA level, mean (CHA15 cells): 1
TRMT61A mRNA level, mean (CHA15 cells): 1
WLS mRNA level, mean (CHA15 cells): 1

— PMC10762078, “Role of UPF1-LIN28A interaction during early differentiation of pluripotent stem cells” (Nature Communications, 2024)
